Data taken from US11834516B2, “Tumor-specific polypeptide and use thereof” (GENOIMMUNE THERAPEUTICS CO., LTD., priority 2016, dated 2023).

Columns and labels:
HLA-A0201 = molecular target: T1, HLA-A0201 (Homo sapiens, UniProt P04439, D140Y/D185E/D98H/E176V/E277Q/G131W/G231S/I119V/I121R/I166T/I218V/L300P/L318F/N151K/N90K/P208A/P217A/Q86G/Q94H/R138H/R169H/T345S); experiment: T2 affinity verification of the polypeptides for HLA-A0201 by flow cytometry; assay type: binding; conditions: T2 affinity test
T1 construct: T2 cell expresses HLA-A0201; host or cells: T2 cells
Procedure: 2 duplicate wells per group were used. […] The cells were collected by centrifugation at 200 g for 5 minutes. After the collected cells were washed twice with PBS (Cat. No. 10010-031, GIBCO), the cells were directly incubated with anti-HLA-A 0201 FITC monoclonal antibody and incubated at 4 C for 30 minutes. The mean fluorescence intensity (MFI) was then detected and analyzed by flow cytometry (BD FACSJazz™) and its software, as shown in FIG. 1.
The fluorescence index (FI) is calculated using the following formula: FI=[Mean Fluorescence Intensity (MFI)sample−MFIbackground]/MFIbackground, wherein the MFIbackground represents the value without the polypeptide.

CD8+ T cells [1] = experiment: Cell expansion of CD8+ T cells stimulated by polypeptide-loaded DCs in vitro; assay type: cell-based, human; conditions: day 10 of co-culture of CD8+ T cells with polypeptide-loaded DCs; 2.5 × 10^6 cells before culture
Procedure: Dendritic cells (DCs) derived from monocytes were used as antigen presenting cells (APCs) to induce CTL responses against peptides presented on HLA. 2×10^8 peripheral blood mononuclear cells (PBMC) were isolated from 100 ml of peripheral blood of healthy volunteers with positive HLA-A0201 subtype using Ficoll lymphocyte separation solution (Cat. No. 17-1440-02, GE Healthcare). Mononuclear cells were obtained by adherent culture (3 hours), and CD8+ T cells in PBMC cells were screened with CD8 magnetic beads. GM-CSF (1000 U/ml) and IL-4 (1000 U/ml) were used to induce adherent monocytes into immature DCs, then IFN-γ (100 U/ml), LPS (10 ng/ml), and the polypeptides of the present invention as set forth in SEQ ID NOs: 2-5 were used to induce adherent cells into mature DC cells. The mature DC cells loaded with the polypeptides were irradiated (dose of 25 Gy) and co-cultured with CD8+ T cells of the volunteers (DC density was 5×10^5 cells/ml, CD8+ T cell density was 2×10^6 cells/ml, both of DCs and CD8+ T cells were mixed in equal volume and added to the well plate, i.e., co-cultured) with IL-21 added, then IL-2 and IL-7 were replenished after 3 days, and then IL-2 and IL-7 were replenished once on day 5 and 7, respectively. Co-cultured cells (co-cultured CD8+ T cells were activated to polypeptide-specific CD8+ T cells) were counted on day 10.

CD8+ T cells [2] = experiment: IFN-γ ELISPOTs, activation of CD8+ T cell immune response; assay type: cell-based, human; conditions: for Number of spots in the mutated polypeptide group / Number of spots in the wild type polypeptide group: CD8+ T cells primed with DCs loaded with the polypeptide, 20 hours; for Number of spots in the mutated polypeptide group: T2 cells loaded with mutated polypeptide; for Number of spots in the wild type polypeptide group: T2 cells loaded with wild type polypeptide KLMGIVNKV; for Conclusion (immunogenicity): IFN-γ ELISPOTs; for Folds (test/wild type): ratio of spot numbers, >2 = immunogenic
Description: The principle of ELISPOTs detection method is that CD8+ T cells can specifically recognize the complex of HLA-A0201 and a polypeptide, and with different polypeptide sequence, the T cell population recognizing the complex of HLA-A0201 and the polypeptide is also different. As T2 cells express HLA-A0201, CD8+ T cells can specifically recognize T2 cells loaded with mutated polypeptides, but cannot recognize T2 cells loaded with wild-type polypeptide. After specifically recognizing the complex of HLA-A0201 and the polypeptide, the polypeptide-specific CD8+ T cells are able to reactivate and secrete IFN-γ. The IFN-γ secreted by activation of CD8+ T cells is captured by a biotin-labeled secondary antibody. It is then bound to alkaline phosphatase or peroxide horseradish oxidase-labeled streptavidin. Spots are formed by the color development of the substrate. The number of spots represents the number of cells that are activated to secrete IFN-γ.
The cells co-cultured in Example 4 and T2 cells loaded with the mutated polypeptides or the wild-type polypeptide were added into human IFN-γ ELISPOTs plates for culture and detection. The spots formed by the ELISPOT test were finally counted. The requirement for the test polypeptide to be immunogenic is as follows: the number of spots (test polypeptide)/the number of spots (wild type polypeptide)>2, that is, the number of spots formed by the test polypeptide is more than twice the number of spots formed by the wild type polypeptide.
The cells co-cultured in Example 4 and T2 cells loaded with the mutated polypeptide […] (SEQ ID NO: 2) and its variable formats (SEQ ID NOs: 2-5) and the wild type polypeptide […] (SEQ ID NO: 6) were added into human IFN-γ ELISPOTs plates for culture, and subjected to ELISPOTs test (Mabtech, Cat. No. 3420-4APW-2) 20 hours later.

T2 cells = experiment: LDH release assay, specific killing activity of CD8+ T cells; assay type: cell-based, human; design: concentration or dose not given beside the values; conditions: T cells activated by the labelled polypeptide, 4 hours
Procedure: The following experiment was carried out according to the instructions of Pierce™ LDH Cytotoxicity Assay Kit (Thermo, Cat. No. 88953). The co-cultured cells in Example 4 were co-cultured with T2 cells loaded with mutated polypeptides or wild-type polypeptide or T2 cells without any loaded polypeptides. In the experiment, the maximum release well, the volume correction well, the medium control well, the spontaneous release well, the control of different ratios of effective cells to target cells (the ratio of the number of T cells to the T2 cell) and the like were set, and three duplicate wells were set in each group, and after 4 hours, 50 ul of the supernatant of the co-cultured cells was collected and added to 50 ul of LDH substrate mixture to catalyze the reaction of LDH substrate. After 30 minutes, 50 ul of reaction stop solution was added and read the 490 nm wavelength and the reference wavelength of 680 nm, and the killing activity of target cells against T2 cells were calculated based on the control wells.
The formula for calculating the killing activity is: Killing efficiency (%)=(test well−spontaneous release of effector cell−spontaneous release of target cell+medium well)/(maximum release of target cell−volume correction well−spontaneous release of target cell+medium well)×100%

[3] = system: H2087-KLMGIVYKV subcutaneous tumor; experiment: Lentivirus (nucleic acid) transfected DC vaccine in H2087-[…] subcutaneous tumor model; assay type: in vivo, NOD/SCID mice; conditions: lentivirus-infected DC, intradermal, 2 weekly injections
Description: Using automated DNA synthesizer, nucleotide sequences were synthesized by ligating nucleotides one by one based on a known sequence utilizing solid phase phosphite amide method. […] The lentiviral plasmids pHBLV-Puro containing the wild type polypeptide or the mutated polypeptides were separately constructed and named as pHBLV-Puro-[…], pHBLV-Puro-[…], pHBLV-Puro-[…], pHBLV-Puro-[…], pHBLV-Puro-[…], respectively. Thereafter, the five lentiviral plasmids were co-transfected into T293 cells with the pSPAX2 and pMD2G helper plasmids, respectively, and were packaged into lentiviruses containing the wild type polypeptide or the mutated polypeptides.
The established human lung (non-small cell) adenocarcinoma cell line H2087-[…] cells were cultured in DMEM medium supplemented with 10% fetal calf serum, 100 U/mL penicillin and streptomycin in an incubator at 37° C., 5% CO2. […] After appropriate dilution, 40 μl of the cell suspension was stained with 10 μl of 0.4% Trypan Blue and microscopically counted to prepare a tumor cell suspension at a concentration of 1×10^8 cells/ml. […] Using the vernier caliper, the tumor long diameter a and the short diameter b were measured every 2-3 days, and the tumor size was calculated as follows: tumor size=a*b*b/2. […]

[4] = target T2 loaded with KLMGIVYKV (SEQ ID NO: 2)
[5] = target T2 loaded with wild type KLMGIVNKV (SEQ ID NO: 6)

Sequence | affinity for HLA-A0201 (HLA-A0201) | Total number of cells in the well after culture (CD8+ T cells [1]) | Number of spots in the mutated polypeptide group (CD8+ T cells [2]) | Number of spots in the wild type polypeptide group (CD8+ T cells [2]) | Conclusion (immunogenicity) (CD8+ T cells [2]) | Folds (test/wild type) (CD8+ T cells [2]) | Killing efficiency, ratio of effective cells to target cells (1:1) (T2 cells; [4]) | Killing efficiency, ratio of effective cells to target cells (10:1) (T2 cells; [4]) | Killing efficiency, ratio of effective cells to target cells (1:1) (T2 cells; [5]) | Killing efficiency, ratio of effective cells to target cells (10:1) (T2 cells; [5]) | tumor suppressing effect [3]
KMMGIVYKL | enhanced affinity for HLA-A0201 | 1.46 × 10^7 | 328 | 29 | immunogenic | 11.31 | 8.29% | 42.26% | 3.25% | 6.23% | 
KLMGIVNKV [wild-type peptide fragment, amino acids 130-138 of the unmutated Twist neighbor protein] |  |  |  |  |  |  |  |  |  |  | no effect on the tumor
KMMGIVYKV | enhanced affinity for HLA-A0201 | 1.37 × 10^7 | 323 | 37 | immunogenic | 8.73 |  |  |  |  | 
KLMGIVYKL | enhanced affinity for HLA-A0201 | 1.63 × 10^7 | 335 | 40 | immunogenic | 8.34 | 8.76% | 44.52% | 2.17% | 4.63% | 
KLMGIVYKV [9-amino-acid mutated TWIST Neighbor protein peptide (N136Y)] | does have a high affinity for HLA-A0201 | 1.32 × 10^7 | 316 | 31 | immunogenic | 10.01 | 7.69% | 38.29% | 2.33% | 5.03% | 
